Laboratory results taken from PMC7037682, “Herb–Drug Interaction of Red Ginseng Extract and Ginsenoside Rc with Valsartan in Rats” (Molecules, 2020).
Where two headings read alike, the source gives them in different places.

What was measured:
OCT2 = target: T1, OCT2 (Homo sapiens, UniProt O15244); assay: Inhibition of OCT2-mediated [3H]MPP+ uptake in HEK293-OCT2 cells
T1 sequence (O15244 1-555): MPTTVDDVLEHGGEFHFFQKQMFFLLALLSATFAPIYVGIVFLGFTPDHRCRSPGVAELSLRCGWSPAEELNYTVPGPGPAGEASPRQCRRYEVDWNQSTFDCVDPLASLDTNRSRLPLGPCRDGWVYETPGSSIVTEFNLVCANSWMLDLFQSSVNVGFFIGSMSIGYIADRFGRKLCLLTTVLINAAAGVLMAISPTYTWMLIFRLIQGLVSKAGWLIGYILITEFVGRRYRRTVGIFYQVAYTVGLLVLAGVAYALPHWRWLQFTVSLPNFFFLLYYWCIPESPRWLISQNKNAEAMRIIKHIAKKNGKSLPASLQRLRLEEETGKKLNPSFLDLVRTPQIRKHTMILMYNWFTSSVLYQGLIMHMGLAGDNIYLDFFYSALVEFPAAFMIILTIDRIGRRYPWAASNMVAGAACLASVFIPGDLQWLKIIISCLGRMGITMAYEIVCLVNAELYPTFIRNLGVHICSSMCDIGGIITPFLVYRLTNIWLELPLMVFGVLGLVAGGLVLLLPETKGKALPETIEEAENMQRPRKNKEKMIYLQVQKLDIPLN
Protocol: (§1) HEK293 cells overexpressing the OCT1, OCT2, OAT1, OAT3, OATP1B1, and OATP1B3 transporters (HEK293-OCT1, -OCT2, -OAT1, -OAT3, -OATP1B1, and -OATP1B3, respectively) and HEK293-mock cells (Corning Life Sciences; Woburn, MA, USA) were used and characterized as previously described.
(§2) HEK293 cells overexpressing drug transporters and HEK293-mock cells were seeded in poly-D-lysine-coated 96-well plates at a density of 10^5 cells/well and were cultured in DMEM supplemented with 10% FBS, 5 mM non-essential amino acids, and 2 mM sodium butyrate in a humidified atmosphere with 8% CO2 at 37 °C.
To examine the effects of ginsenosides and typical inhibitors on transporter activity, aliquots (100 μL) of HBSS containing the probe substrate and ginsenosides or typical inhibitors were added to the cells after aspirating pre-incubated HBSS. The concentrations and probe substrates were as follows: 0.1 μM [^3H]MPP^+ for OCT1 and OCT2, 0.1 μM [^3H]PAH for OAT1, 0.1 μM [^3H]ES for OAT3 and OATP1B1, and 0.1 μM [^3H]EG for OATP1B3. […] Then the uptake of probe substrates into HEK293-mock cells and HEK293-OCT1, -OCT2, -OAT1, -OAT3, -OATP1B1, and -OATP1B3 cells in the presence and absence of typical inhibitor or each ginsenoside with previously described concentration range was measured for 5 min. Immediately after placing the plates on ice, the cells were washed three times with 100 μL of ice-cold HBSS, followed by lysing with 50 μL of 10% SDS solution and mixing with 150 μL of Optiphase cocktail solution (Perkin Elmer Inc., Boston, MA, USA). The radioactivity of the probe substrates in the cells was determined using a liquid scintillation counter.
(§3) In the inhibition studies, the uptake rate of substrate by HEK293 cells overexpressing the respective transporters was used as the control (100%) and the uptake rate of substrates in the presence of typical inhibitors or ginsenosides expressed as a percentage of the control. The inhibition data were fitted to an inhibitory effect model using Sigma plot (version 10.0; Systat Software Inc., San Jose, CA, USA). IC50 value indicated the half-maximal inhibitory concentration of the inhibitor.

[1] = Plasma pharmacokinetics of ginsenosides in rats after 1-week repeated RGE; details: for detection in rat plasma: LC-MS/MS; for maximum plasma concentration (molar): after RGE 1.5 g/kg/day po for 7 days
Protocol: The rats were randomly divided into the control and RGE groups. The RGE group received a RGE suspension (1.5 g/mL/kg/day, in distilled water) for 7 days via oral gavage. The control group received distilled water for 7 days via oral gavage. After 1 h following the last RGE treatment, valsartan was injected intravenously to both groups via the tail vein at 1 mg/mL/kg (dissolved in DMSO: saline = 2:8, v/v). […] After centrifugation of the blood samples at 16,000× g for 10 min, aliquots (50 μL each) of plasma samples were stored at −80 °C until the analysis of ginsenosides and valsartan.
The residue was reconstituted with 100 μL of 70% methanol consisting of 0.1% formic acid. An aliquot (20 μL) from the sample was injected into the LC-MS/MS system.
After freezing the aqueous layer at −80 °C for 2 h, the upper organic layer was transferred to a clean tube and evaporated to dryness. […] An aliquot (20 μL) from the sample was injected into the LC-MS/MS system. The samples were eluted through an Omega Polar C18 column (2.1 mm × 100 mm, 3 µm particle size) (Phenomenex, Torrance, CA, USA) using a mobile phase consisting of 0.1% formic acid in water: 0.1% formic acid in methanol (15:85, v/v) at a flow rate of 0.2 mL/min.
Pharmacokinetic parameters were calculated from plasma concentration-time profile using non-compartment analysis of WinNonlin (version 5.1; Pharsights, Cary, NC, USA). The statistical significance was assessed by t-test using Statistical Package for the Social Sciences (version 24.0; SPSS Inc., Chicago, IL, USA).

OAT1 = target: T2, OAT1 (Homo sapiens, UniProt Q4U2R8); assay: Inhibition of OAT1-mediated [3H]PAH uptake in HEK293-OAT1 cells
T2 sequence (Q4U2R8 1-563): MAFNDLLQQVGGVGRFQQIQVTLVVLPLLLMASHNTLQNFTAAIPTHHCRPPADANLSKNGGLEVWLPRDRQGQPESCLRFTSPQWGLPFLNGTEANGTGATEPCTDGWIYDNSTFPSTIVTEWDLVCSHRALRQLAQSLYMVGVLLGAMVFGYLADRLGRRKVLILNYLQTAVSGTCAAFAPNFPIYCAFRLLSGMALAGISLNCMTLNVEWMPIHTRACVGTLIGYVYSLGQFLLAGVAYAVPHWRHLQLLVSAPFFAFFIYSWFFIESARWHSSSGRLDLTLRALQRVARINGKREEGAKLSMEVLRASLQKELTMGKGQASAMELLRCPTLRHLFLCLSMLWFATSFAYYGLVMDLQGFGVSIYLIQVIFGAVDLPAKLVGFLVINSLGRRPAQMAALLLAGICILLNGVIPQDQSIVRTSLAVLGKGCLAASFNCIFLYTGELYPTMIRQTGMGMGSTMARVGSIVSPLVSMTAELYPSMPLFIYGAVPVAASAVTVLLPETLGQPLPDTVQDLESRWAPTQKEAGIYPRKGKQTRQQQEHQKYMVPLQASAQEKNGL
Protocol: as §1, §2
Then the uptake of probe substrates into HEK293-mock cells and HEK293-OCT1, -OCT2, -OAT1, -OAT3, -OATP1B1, and -OATP1B3 cells in the presence and absence of typical inhibitor or each ginsenoside with previously described concentration range was measured for 5 min. Immediately after placing the plates on ice, the cells were washed three times with 100 μL of ice-cold HBSS, followed by lysing with 50 μL of 10% SDS solution and mixing with 150 μL of Optiphase cocktail solution (Perkin Elmer Inc., Boston, MA, USA). The radioactivity of the probe substrates in the cells was determined using a liquid scintillation counter.
as §3

[2] = after RGE 1.5 g/kg/day po for 1 week
[3] = read-out: IC50 OCT2, HEK293-OCT2, 0.1 μM [3H]MPP+ uptake, 5 min
[4] = rat plasma, 0 to 48 h, after RGE 1.5 g/kg/day po for 1 week
[5] = rat plasma, after RGE 1.5 g/kg/day po for 1 week
[6] = read-out: IC50 OAT1, HEK293-OAT1, 0.1 μM [3H]PAH uptake, 5 min

Row | Structure (SMILES) | IC50 (OCT2) [µM] | AUC ([1]; rat, plasma, po, 1.5 g/kg/day) [ng·h/mL] | Cmax ([1]; rat, plasma, po, 1.5 g/kg/day) [ng/mL] | MRT ([1]; rat, plasma, po, 1.5 g/kg/day) [h] | Tmax ([1]; rat, plasma, po, 1.5 g/kg/day) [h] | half-life ([1]; rat, plasma, po, 1.5 g/kg/day) [h] | IC50 (OAT1) [µM] | detection in rat plasma [1, 2] | IC50 (OCT2; [3]) [µM] | AUC [1, 4] [ng·h/mL] | Cmax [1, 5] [ng/mL] | MRT [1, 5] [h] | T1/2 [1, 5] [h] | Tmax [1, 5] [h] | maximum plasma concentration (molar) ([1]; rat plasma) [nM] | IC50 (OAT1; [6]) [µM]
1 | CC(C)=CCC[C@](C)(O[C@@H]1O[C@H](CO[C@@H]2O[C@H](CO)[C@@H](O)[C@H](O)[C@H]2O)[C@@H](O)[C@H](O)[C@H]1O)[C@H]1CC[C@]2(C)[C@@H]1[C@H](O)C[C@@H]1[C@@]3(C)CC[C@H](O[C@@H]4O[C@H](CO)[C@@H](O)[C@H](O)[C@H]4O[C@@H]4O[C@H](CO)[C@@H](O)[C@H](O)[C@H]4O)C(C)(C)[C@@H]3CC[C@]12C [Rb1, ginsenoside Rb1] | > 100 | 455 ± 111 | 17.8 ± 2.34 | 17.1 ± 2.09 | 3.33 ± 1.15 | 16.9 ± 5.81 | > 100 |  |  |  |  |  |  |  |  | 
2 | CC(C)=CCC[C@](C)(O)[C@H]1CC[C@]2(C)[C@@H]1[C@H](O)C[C@@H]1[C@@]3(C)CC[C@H](O)C(C)(C)[C@@H]3[C@@H](O)C[C@]12C [PPT, protopanaxatriol] |  |  |  |  |  |  |  | detected | > 100 | 429.91 ± 105.75 | 16.97 ± 8.99 | 23.12 ± 2.26 | 46.38 ± 13.27 | 16.50 ± 12.48 | 38.5 | > 100
3 | CC(C)=CCCC(C)(O)[C@H]1CC[C@]2(C)[C@@H]1[C@H](O)C[C@@H]1[C@@]3(C)CC[C@H](O)C(C)(C)[C@@H]3CC[C@]12C (stereo in doubt) [PPD, protopanaxadiol] |  |  |  |  |  |  |  | detected | > 100 | 542.01 ± 141.09 | 20.56 ± 9.47 | 21.56 ± 3.31 | 26.95 ± 18.33 | 16.50 ± 12.48 | 48.4 | > 100

Further lines, with some results ahead:

Row | IC50 (OCT2) [µM] | AUC ([1]; rat, plasma, po, 1.5 g/kg/day) [ng·h/mL] | Cmax ([1]; rat, plasma, po, 1.5 g/kg/day) [ng/mL] | MRT ([1]; rat, plasma, po, 1.5 g/kg/day) [h] | Tmax ([1]; rat, plasma, po, 1.5 g/kg/day) [h] | half-life ([1]; rat, plasma, po, 1.5 g/kg/day) [h] | IC50 (OAT1) [µM] | Structure (SMILES) | detection in rat plasma [1, 2] | IC50 (OCT2; [3]) [µM] | AUC [1, 4] [ng·h/mL] | Cmax [1, 5] [ng/mL] | MRT [1, 5] [h] | T1/2 [1, 5] [h] | Tmax [1, 5] [h] | maximum plasma concentration (molar) ([1]; rat plasma) [nM] | IC50 (OAT1; [6]) [µM]
4 | > 100 |  |  |  |  |  | > 100 | CC(C)=CCC[C@](C)(O[C@@H]1O[C@H](CO)[C@@H](O)[C@H](O)[C@H]1O)[C@H]1CC[C@]2(C)[C@@H]1[C@H](O)C[C@@H]1[C@@]3(C)CC[C@H](O)C(C)(C)[C@@H]3[C@@H](O[C@@H]3O[C@H](CO)[C@@H](O)[C@H](O)[C@H]3O[C@@H]3O[C@@H](C)[C@H](O)[C@@H](O)[C@H]3O)C[C@]12C [Re, ginsenoside Re] | not detected |  |  |  |  |  |  |  | 
5 | > 100 | 321 ± 97.2 | 11.7 ± 2.49 | 18.4 ± 1.89 | 3.33 ± 1.15 | 24.2 ± 7.51 | > 100 | CC(C)=CCC[C@](C)(O[C@@H]1O[C@H](CO[C@@H]2O[C@@H](CO)[C@H](O)[C@H]2O)[C@@H](O)[C@H](O)[C@H]1O)[C@H]1CC[C@]2(C)[C@@H]1[C@H](O)C[C@@H]1[C@@]3(C)CC[C@H](O[C@@H]4O[C@H](CO)[C@@H](O)[C@H](O)[C@H]4O[C@@H]4O[C@H](CO)[C@@H](O)[C@H](O)[C@H]4O)C(C)(C)[C@@H]3CC[C@]12C [Rc, ginsenoside Rc] |  |  |  |  |  |  |  | 10.6 | 
